Data published in PMC12087695, “A Phenotyping Tool for Seven Cytochrome P450 Enzymes and Two Transporters: Application to Examine the Effects of Clopidogrel and Gemfibrozil” (Clinical Pharmacology and Therapeutics, 2025).

Tests used:
[1] = Plasma pharmacokinetics of cocktail index drugs and their metabolites, five-phase crossover trial; conditions: for AUC(0-t) / AUC(0-inf) / Cmax / Tmax / half-life: human, plasma, oral; for AUC(0-t) / AUC(0-inf) / Cmax: geometric mean (geometric CV); for AUC(0-inf): AUC0-∞; for Tmax: median (range); for half-life: t1/2, geometric mean (geometric CV);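 for all read-outs here: parameters derived from plasma drug levels quantified by LC–MS with internal standards after acetonitrile protein precipitation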
Procedure: (§1) This open‐label cross‐over clinical trial included five study phases that each participant underwent in a randomized order (Table 1 ). There was at least 2‐week washout period between different study days.
(§2) On study days, venous blood samples from all participants were drawn from forearm vein cannulas before the administration of the pretreatment drugs and 5 minutes before and 0.5, 1, 1.5, 2, 3, 4, 6, 8, 12, and 23 hours after the administration of the index drugs for determination of index drug and metabolite concentrations. […] Standardized breakfast was served 1 hour, lunch 3 hours, and snacks 7 and 9 hours after the administration of index drugs.
(§3) Prior to the analysis, the analytes were extracted from the plasma samples with simple protein precipitation. Plasma samples (50 μL) were mixed with acetonitrile solution (200 μL) containing internal standards. The samples were centrifugated and an aliquot of the supernatant was mixed with an equal volume of water before LC–MS analyses.
(§4) The flow rate was 0.3 mL/min, and the gradient program for the mobile phase B was from 20% to 90% over 7 minutes, wash at 90% 7–9.5 minutes, followed by balancing at 20% before next injection. […] The column and mobile phases were the same as above, and the gradient program for the mobile phase B was from 40% to 90% over 5 minutes, wash at 90% 5–7.3 minutes, followed by balancing at 40% before next injection. The quality control samples for each analyte at relevant concentrations were quantified with each batch of plasma samples.
(§5) Individuals with poor metabolism or transport function phenotype were excluded from respective statistical comparisons.

[2] = clinical; conditions: human; for AUC(0-inf): AUC0-∞; for half-life: t1/2, geometric mean (geometric CV); for Tmax: median (range)
Procedure: as §1, §2, §3, §4, §5

[3] = phase IV: clopidogrel 300 mg pretreatment + full cocktail
[4] = phase V: gemfibrozil 600 mg b.i.d. 3 days pretreatment + full cocktail
[5] = in vivo, AUC0-23h, geometric mean (geometric CV), phase II: Geneva cocktail
[6] = in vivo, AUC0-23h, geometric mean (geometric CV), phase IV: clopidogrel 300 mg pretreatment + full cocktail
[7] = in vivo, geometric mean (geometric CV), phase II: Geneva cocktail
[8] = in vivo, geometric mean (geometric CV), phase IV: clopidogrel 300 mg pretreatment + full cocktail
[9] = in vivo, geometric mean (geometric CV), phase V: gemfibrozil 600 mg b.i.d. 3 days pretreatment + full cocktail
[10] = in vivo, phase II: Geneva cocktail
[11] = in vivo, AUC0-23h, geometric mean (geometric CV), phase V: gemfibrozil 600 mg b.i.d. 3 days pretreatment + full cocktail
[12] = in vivo, phase IV: clopidogrel 300 mg pretreatment + full cocktail
[13] = in vivo, phase V: gemfibrozil 600 mg b.i.d. 3 days pretreatment + full cocktail
[14] = AUC0-12h, phase II: Geneva cocktail

| SMILES | Cmax, geometric mean (geometric CV) ([1]; phase II: Geneva cocktail) | t1/2, geometric mean (geometric CV) [1, 3] | AUC0-23h, geometric mean (geometric CV) [1, 4] | t1/2, geometric mean (geometric CV) [1, 4] | AUC(0-t) [2, 5] | AUC(0-t) [2, 6] | AUC(0-inf) [2, 7] | AUC(0-inf) [2, 8] | AUC(0-inf) [2, 9] | Cmax [2, 8] | Cmax [2, 9] | half-life [2, 10] | Tmax, median (range) ([1]; phase II: Geneva cocktail) | Tmax, median (range) [1, 3] | Cmax [2, 7] | AUC(0-t) [2, 11] | half-life [2, 12] | half-life [2, 13] | also measured |
| --- | --- | --- | --- | --- | --- | --- | --- | --- | --- | --- | --- | --- | --- | --- | --- | --- | --- | --- | --- |
| COc1ccc2[nH]c([S+]([O-])Cc3ncc(C)c(OC)c3C)nc2c1 (stereo not drawn) [Omeprazole, omeprazole] | 144 (88.5%) ng/mL | 0.69 (30.9%) h | 150 (62.8%) ng×h/mL | 0.78 (59.9%) h | 177 ng·h/mL | 214 ng·h/mL | 177 ng·h/mL | 214 ng·h/mL | 149 ng·h/mL | 167 ng/mL | 98 ng/mL | 0.76 h | – | – | – | – | – | – | – |
| C[C@H]1NC(C)(C)CO[C@]1(O)c1cccc(Cl)c1 [OH-bupropion, hydroxybupropion] | 36.9 (38.6%) ng/mL | 34.6 (42.9%) h | 585 (43.5%) ng×h/mL | 29.4 (51.7%) h | – | – | – | – | – | – | – | – | 3.0 (2.0-4.0) h | 4.0 (1.5-12.0) h | – | – | – | – | AUC0-23h, geometric mean (geometric CV) ([1]; phase II: Geneva cocktail): 571 (35.3%) ng×h/mL; AUC0-∞, geometric mean (geometric CV) ([1]; phase II: Geneva cocktail): 1200 (44.1%) ng×h/mL; t1/2, geometric mean (geometric CV) ([1]; phase II: Geneva cocktail): 26.1 (40.1%) h; AUC0-23h, geometric mean (geometric CV) [1, 3]: 181 (37.6%) ng×h/mL; AUC0-∞, geometric mean (geometric CV) [1, 3]: 499 (45.3%) ng×h/mL; Cmax, geometric mean (geometric CV) [1, 3]: 10.3 (39.9%) ng/mL; AUC0-∞, geometric mean (geometric CV) [1, 4]: 1380 (41.2%) ng×h/mL; Cmax, geometric mean (geometric CV) [1, 4]: 34.1 (44.6%) ng/mL; Tmax, median (range) [1, 4]: 6.0 (1.0-12.0) h |
| CC(NC(C)(C)C)C(=O)c1cccc(Cl)c1 (stereo not drawn) [Bupropion, bupropion] | – | – | – | – | 76.5 ng·h/mL | – | 84.7 ng·h/mL | – | – | – | – | 7.89 h | – | – | 20 ng/mL | – | – | – | – |
| COc1ccc2nc(S(=O)(=O)Cc3ncc(C)c(OC)c3C)[nH]c2c1 [Omeprazole sulfone, omeprazole sulfone] | – | – | – | – | – | – | – | – | – | – | – | – | – | – | – | – | – | – | AUC(0-t) ([1]; AUC0-23h, phase II: Geneva cocktail): 113 ng·h/mL; AUC(0-t) ([1]; AUC0-23h, phase IV: clopidogrel 300 mg pretreatment + full cocktail): 156 ng·h/mL; AUC(0-t) ([1]; AUC0-23h, phase V: gemfibrozil 600 mg b.i.d. 3 days pretreatment + full cocktail): 124 ng·h/mL; AUC(0-inf) ([1]; phase II: Geneva cocktail): 111 ng·h/mL; AUC(0-inf) [1, 3]: 154 ng·h/mL; AUC(0-inf) [1, 4]: 122 ng·h/mL; Cmax ([1]; phase II: Geneva cocktail): 35.3 ng/mL; Cmax [1, 3]: 51.2 ng/mL; Cmax [1, 4]: 41.8 ng/mL; Tmax ([1]; phase II: Geneva cocktail): 1.5 h; Tmax [1, 3]: 1.5 h; Tmax [1, 4]: 1.5 h; half-life ([1]; phase II: Geneva cocktail): 1.9 h; half-life [1, 3]: 1.88 h; half-life [1, 4]: 1.64 h |
| CC(C(=O)O)c1ccc(-c2ccc(O)cc2)c(F)c1 (stereo not drawn) [4’-OH-flurbiprofen, 4′‐hydroxyflurbiprofen] | – | – | – | – | 224 ng·h/mL | – | 263 ng·h/mL | – | – | – | – | 3.44 h | – | – | 46.4 ng/mL | – | – | – | Tmax [2, 10]: 1.8 h |
| Cc1ncc2n1-c1ccc(Cl)cc1C(c1ccccc1F)=NC2 [Midazolam, midazolam] | 4.03 (36.4%) ng/mL | – | – | – | 9.89 ng·h/mL | 11.3 ng·h/mL | 9.82 ng·h/mL | 11.2 ng·h/mL | 7.98 ng·h/mL | 4.33 ng/mL | 3.25 ng/mL | 2.29 h | 0.5 (0.5-1.0) h | 1.0 (0.5-1.0) h | – | 8.06 ng·h/mL | 2.4 h | 2.29 h | – |
| COc1ccc2nc([S+]([O-])Cc3ncc(CO)c(OC)c3C)[nH]c2c1 (stereo not drawn) [5’-OH-omeprazole, 5′‐hydroxyomeprazole] | 99.8 (87.9%) ng/mL | 1.04 (15.5%) h | 253 (37.6%) ng×h/mL | 1.34 (32.6%) h | – | – | – | – | – | – | – | – | 1.5 (1.0-2.0) h | 1.5 (1.0-3.0) h | – | – | – | – | AUC0-23h, geometric mean (geometric CV) ([1]; phase II: Geneva cocktail): 194 (35.7%) ng×h/mL; AUC0-∞, geometric mean (geometric CV) ([1]; phase II: Geneva cocktail): 193 (36.1%) ng×h/mL; t1/2, geometric mean (geometric CV) ([1]; phase II: Geneva cocktail): 1.17 (36.9%) h; AUC0-23h, geometric mean (geometric CV) [1, 3]: 213 (14.6%) ng×h/mL; AUC0-∞, geometric mean (geometric CV) [1, 3]: 212 (14.5%) ng×h/mL; Cmax, geometric mean (geometric CV) [1, 3]: 115 (23.8%) ng/mL; AUC0-∞, geometric mean (geometric CV) [1, 4]: 253 (36.9%) ng×h/mL; Cmax, geometric mean (geometric CV) [1, 4]: 104 (76.9%) ng/mL; Tmax, median (range) [1, 4]: 1.5 (1.0-4.0) h |
| CC(C(=O)O)c1ccc(-c2ccccc2)c(F)c1 (stereo not drawn) [Flurbiprofen, flurbiprofen] | – | – | – | – | 5550 ng·h/mL | 5720 ng·h/mL | 5910 ng·h/mL | 5940 ng·h/mL | 6080 ng·h/mL | 1180 ng/mL | 1110 ng/mL | 4.82 h | – | – | 1090 ng/mL | 5770 ng·h/mL | 4.35 h | 4.61 h | Tmax [2, 12]: 1.5 h; Tmax [2, 13]: 1.5 h |
| OCc1ncc2n1-c1ccc(Cl)cc1C(c1ccccc1F)=NC2 [1’-OH-midazolam, 1′‐hydroxymidazolam] | 1.48 (40.9%) ng/mL | 1.46 (26.6%) h | 7.33 (41.1%) ng×h/mL | 1.85 (28.8%) h | – | – | – | – | – | – | – | – | 1.0 (0.5-1.0) h | 1.0 (0.5-1.0) h | – | – | – | – | AUC0-23h, geometric mean (geometric CV) ([1]; phase II: Geneva cocktail): 3.54 (37.4%) ng×h/mL; AUC0-∞, geometric mean (geometric CV) ([1]; phase II: Geneva cocktail): 3.75 (35.9%) ng×h/mL; t1/2, geometric mean (geometric CV) ([1]; phase II: Geneva cocktail): 1.53 (35.6%) h; AUC0-23h, geometric mean (geometric CV) [1, 3]: 5.03 (42.0%) ng×h/mL; AUC0-∞, geometric mean (geometric CV) [1, 3]: 5.15 (39.8%) ng×h/mL; Cmax, geometric mean (geometric CV) [1, 3]: 2.14 (42.5%) ng/mL; AUC0-∞, geometric mean (geometric CV) [1, 4]: 7.65 (36.6%) ng×h/mL; Cmax, geometric mean (geometric CV) [1, 4]: 2.83 (38.7%) ng/mL; Tmax, median (range) [1, 4]: 1.0 (0.5-1.5) h |
| CN1CC[C@@]23CCCC[C@@H]2[C@@H]1Cc1ccc(O)cc13 [Dextrorphan, dextrorphan] | – | – | – | – | 8.07 ng·h/mL | 9.66 ng·h/mL | 8.35 ng·h/mL | 10 ng·h/mL | 17.8 ng·h/mL | 2.05 ng/mL | 3.63 ng/mL | 2.5 h | – | – | 1.82 ng/mL | 17.8 ng·h/mL | 2.68 h | 2.77 h | Tmax [2, 10]: 2 h; Tmax [2, 12]: 2 h; Tmax [2, 13]: 2 h |
| Cn1c(=O)c2c(ncn2C)n(C)c1=O [Caffeine, caffeine] | – | – | – | – | – | – | – | – | – | – | – | – | – | – | – | – | – | – | Prolongation of t1/2 ([1]; gemfibrozil pretreatment vs control): 21%; AUC(0-t) [1, 14]: 6250 ng·h/mL; AUC(0-inf) ([1]; phase II: Geneva cocktail): 7830 ng·h/mL; Cmax ([1]; phase II: Geneva cocktail): 1130 ng/mL; half-life ([1]; phase II: Geneva cocktail): 4.65 h; AUC(0-t) ([2]; plasma, oral): 6270 ng·h/mL |
| COc1ccc2c(c1)[C@]13CCCC[C@@H]1[C@H](C2)N(C)CC3 [Dextromethorphan, dextromethorphan] | – | – | – | – | 4.9 ng·h/mL | 6.01 ng·h/mL | 5.58 ng·h/mL | 6.68 ng·h/mL | 6.82 ng·h/mL | 0.858 ng/mL | 0.898 ng/mL | 4.24 h | 2.0 (2.0-4.0) h | 2.0 (2.0-3.0) h | 0.745 ng/mL | 6.07 ng·h/mL | 4.61 h | 4.38 h | Tmax [2, 13]: 2.5 h |
| Cn1c(=O)[nH]c2ncn(C)c2c1=O [Paraxanthine, paraxanthine] | – | – | – | – | – | – | – | – | – | – | – | – | – | – | – | – | – | – | AUC(0-t) [1, 14]: 3370 ng·h/mL; AUC(0-t) ([1]; AUC0-12h, phase IV: clopidogrel 300 mg pretreatment + full cocktail): 3940 ng·h/mL; AUC(0-t) ([1]; AUC0-12h, phase V: gemfibrozil 600 mg b.i.d. 3 days pretreatment + full cocktail): 3360 ng·h/mL; AUC(0-inf) ([1]; phase II: Geneva cocktail): 7220 ng·h/mL; AUC(0-inf) [1, 3]: 8930 ng·h/mL; AUC(0-inf) [1, 4]: 9160 ng·h/mL; Cmax ([1]; phase II: Geneva cocktail): 374 ng/mL; Cmax [1, 3]: 436 ng/mL; Cmax [1, 4]: 358 ng/mL; Tmax ([1]; phase II: Geneva cocktail): 4 h; Tmax [1, 3]: 3 h; half-life ([1]; phase II: Geneva cocktail): 11 h; half-life [1, 3]: 12.8 h; half-life [1, 4]: 15.9 h |
